Laboratory results reported in PubChem BioAssay AID977606 (Broad Institute, 2014).
The source made the active and inactive calls. No rule for the calls is given here.

The compounds below were run on INS-1E Gaussia luciferase insulin secretion, no glucose, luminescence (assay: glucose-independent GLuc insulin release activation – cell-based, INS-1E, Gaussia luciferase, luminescence, cherry-pick, counter-screen for glucose-dependent insulin secretion activators, dose response (AID 977606)).

Q: How did the AC40 turn out when `CC(=O)Oc1ccccc1C(=O)OCCN=C1NS(=O)(=O)c2ccccc21` was run?
A: Its AC40 is > 35 µM (inactive).

Q: With `Cc1cc(C)c2nc(N(CCCN(C)C)C(=O)c3ccc4c(c3)CCCC4)sc2c1` as the compound, how does the AC40 read?
A: The AC40 was 7.77 µM.

Q: For `COc1ccc(C#Cc2ccc([C@@H]3[C@@H](CO)N4CCCCN(Cc5ccccc5F)C[C@@H]34)cc2)cc1`, which AC40 is on record?
A: The AC40 was 11.1 µM.

Q: For `O=C(Nc1ccc2ccccc2c1)c1cccc2ccccc12`, which AC40 is on record?
A: Its AC40 is 3.25 µM.

Q: How did the AC40 turn out when `CCOC(=O)c1cc(-c2ccc(Cl)s2)nc2c1c(C)nn2C` was run?
A: The AC40 was 13.6 µM.

Q: How did the AC40 turn out when `CCOC(=O)c1c(NC(=O)c2ccoc2C)sc(C(=O)N(C)C)c1C` was run?
A: Its AC40 is > 35 µM (inactive).

Q: How did the AC40 turn out when `Cc1ccc(-n2sc3cc(F)ccc3c2=O)c(C)c1` was run?
A: The AC40 was 0.883 µM.

Q: Which AC40 does the source give for `O=C(Cn1nnc(-c2ccccc2)n1)N=Nc1c(O)[nH]c2ccccc12` here?
A: Its AC40 is 8.24 µM.

Q: For `Cn1c(=O)oc2cc(S(=O)(=O)N3CCC(C(=O)Nc4ccc(OC(F)(F)F)cc4)CC3)ccc21`, which AC40 is on record?
A: Its AC40 is 5.04 µM.

Q: How did the AC40 turn out when `COc1cc(OC)c2c(-c3ccccc3)cc(C3CCCCC3)nc2c1` was run?
A: The AC40 was 12.1 µM.

Q: Which AC40 does the source give for `CC1(C(=O)NS(=O)(=O)c2ccc(Cl)s2)CCN1C(=O)C1(c2ccccc2)CCCC1` (centres undefined) here?
A: The AC40 was 9.9 µM.

Q: With `CCC(=O)Nc1ccc(NC(=S)NC(=O)c2oc3ccccc3c2C)cc1` as the compound, how does the AC40 read?
A: The AC40 was 3.36 µM.

Q: Which AC40 does the source give for `COC(=O)Cn1cc(C#N)c2ccccc21` here?
A: The AC40 was > 35 µM (inactive).

Q: How did the AC40 turn out when `COc1ccc(C[C@H]2CN3C(=NC[C@@H]3Cc3ccccc3)N2CCNC(=O)CCC2CCCCC2)cc1` was run?
A: The AC40 was 13.5 µM.

Q: How did the AC40 turn out when `Cc1ccc(-n2ncc3c(=O)n(CC(=O)Nc4cccc(Cl)c4)cnc32)cc1C` was run?
A: Its AC40 is 6.76 µM.

Q: For `CN(C)CCNC(=O)c1cccc(-c2cc(NC=O)c3ncc(-c4cccc(C(F)(F)F)c4)n3c2)c1`, which AC40 is on record?
A: The AC40 was 13.7 µM.

Q: With `C/C(=N\NC(=O)c1cccc(Br)c1)c1ccc(Br)cc1` as the compound, how does the AC40 read?
A: The AC40 was 13 µM.

Q: `COCCn1c(=NC(=O)c2cc(Cl)sc2Cl)sc2cc(S(N)(=O)=O)ccc21` was tested. Which AC40 did it give?
A: Its AC40 is 6.07 µM.

Q: For `CC(=O)Nc1sc(N/N=C\c2cccc(Cl)c2)nc1-c1cccs1`, which AC40 is on record?
A: The AC40 was 4.69 µM.

Q: For `Cc1ccc(-c2n[nH]c(=S)n2/N=C/c2c(C)nn(-c3ccccc3)c2C)cc1`, which AC40 is on record?
A: The AC40 was 6.5 µM.

Q: With `Cc1cc(S(=O)(=O)Nc2nc(CN3CCOCC3)nc3sc4c(c23)CCC4)ccc1F` as the compound, how does the AC40 read?
A: The AC40 was > 35 µM (inactive).

Q: How did the AC40 turn out when `O=C1CCc2cc(S(=O)(=O)N3CCN(c4ccc(F)cc4)CC3)cc3c2N1CC3` was run?
A: Its AC40 is > 35 µM (inactive).

Q: Which AC40 does the source give for `CCN=C1NC(c2ccc(C(F)(F)F)cc2)C(C(=O)OC)=C(C)N1Cc1cccc(C(F)(F)F)c1` (centres undefined) here?
A: The AC40 was 3.88 µM.

Q: How did the AC40 turn out when `FC(F)(F)c1cc(CCN2CCNC[C@@H]2c2ccccc2)cc(C(F)(F)F)c1` was run?
A: The AC40 was 7.26 µM.

Q: Which AC40 does the source give for `CCSc1ccc2nnc(-c3ccc(F)cc3)n2n1` here?
A: Its AC40 is 17.9 µM.

Q: For `Cc1ccccc1S(=O)(=O)N1CC(=O)N2[C@@H](CO)[C@H](c3ccc(C#CCC4CCCC4)cc3)[C@@H]2C1`, which AC40 is on record?
A: Its AC40 is 22.6 µM.

Q: For `COc1ccc(OC)c(NC(=O)c2cc3c(Cl)nc4ccccc4c3s2)c1`, which AC40 is on record?
A: The AC40 was 6.97 µM.

Q: `CC(C)Cn1nc(-c2ccccc2)c2ccccc2c1=O` was tested. Which AC40 did it give?
A: Its AC40 is 8.13 µM.

Q: `O=C(Nc1ccc(C(F)(F)F)cc1)N1[C@@H]2CNC[C@H]1C2c1ccc(/C=C/c2ccccc2)cc1` (some centres undefined) was tested. Which AC40 did it give?
A: The AC40 was 7.54 µM.

Q: With `CC(C)CC#Cc1ccc2c(c1)O[C@@H](CN(C)Cc1ccccc1)[C@H](C)CN([C@H](C)CO)S2(=O)=O` as the compound, how does the AC40 read?
A: Its AC40 is 8.93 µM.

Q: `CS(=O)(=O)N1CCN(c2ccc(NC(=O)c3ccc(-c4ccc(Cl)cc4)o3)cc2)CC1` was tested. Which AC40 did it give?
A: Its AC40 is 9.12 µM.

Q: How did the AC40 turn out when `Cc1ccccc1CSCc1ccc(C(=O)NCCCN2CCOCC2)o1` was run?
A: Its AC40 is 26.4 µM.

Q: How did the AC40 turn out when `NS(=O)(=O)c1ccc(NC(=S)N2CCN(c3ccc(Cl)c(Cl)c3)CC2)cc1` was run?
A: Its AC40 is 3.74 µM.

Q: With `C[C@@H]1CN([C@H](C)CO)S(=O)(=O)c2ccc(-c3ccc(F)cc3)cc2O[C@H]1CN(C)Cc1cccc(F)c1` as the compound, how does the AC40 read?
A: Its AC40 is 17.7 µM.

Q: Which AC40 does the source give for `Clc1ccc(-c2ccnc(Oc3cc(Cl)ccc3Cl)n2)cc1` here?
A: The AC40 was 6.7 µM.

Q: For `COC(=O)C1=C(C)N(Cc2cccc(C(F)(F)F)c2)C(=NCc2ccc(C(F)(F)F)cc2)NC1c1ccccc1` (centres undefined), which AC40 is on record?
A: Its AC40 is 8.93 µM.

Q: How did the AC40 turn out when `NC(N)=N/N=C/c1ccc(N(c2ccccc2)c2ccccc2)cc1` was run?
A: Its AC40 is 4.06 µM.

Q: How did the AC40 turn out when `CCOc1ccc2ccc(OCC)c(/C=N/n3cnnc3)c2c1` was run?
A: The AC40 was 34.8 µM.

Q: How did the AC40 turn out when `COc1cccc(-c2sc3ccccc3c2-c2ccc(OCCN(C)C)cc2)c1` was run?
A: Its AC40 is 2.75 µM.

Q: With `COC(=O)c1sccc1NC(=O)COc1ccc(Cl)cc1Cl` as the compound, how does the AC40 read?
A: Its AC40 is 6.02 µM.

Q: Which AC40 does the source give for `CC(C)(C)OC(=O)N[C@@H](Cc1ccccc1)c1nnc(S(=O)(=O)Cc2ccccc2)o1` here?
A: The AC40 was 2.63 µM.

Q: For `COc1ccc(NC(=O)Cc2c(SC)c3ccccc3n2Cc2ccccc2)cc1`, which AC40 is on record?
A: Its AC40 is 12.5 µM.

Q: How did the AC40 turn out when `CCN(Cc1ccccc1)S(=O)(=O)c1ccc(C(=O)N(CCCN(C)C)c2nc3cc(C)cc(C)c3s2)cc1` was run?
A: Its AC40 is 3.71 µM.

Q: For `COc1ccc2c(c1)C(=NNC(=O)c1ccccn1)c1cc(OC)ccc1-2`, which AC40 is on record?
A: The AC40 was 2.66 µM.

Q: How did the AC40 turn out when `Cc1cccc(OCC(=O)Nc2ccc(NC(=O)c3ccco3)cc2)c1` was run?
A: The AC40 was 12.4 µM.

Q: With `OC(CNCCc1ccc(C(F)(F)F)cc1)COc1cccc2ccccc12` (centres undefined) as the compound, how does the AC40 read?
A: Its AC40 is 4.92 µM.

Q: How did the AC40 turn out when `COCCOc1ccc(C(F)(F)F)cc1NC(=O)c1ccccc1F` was run?
A: The AC40 was 7.89 µM.

Q: With `NC(c1csc(Nc2ccc(C(F)(F)F)cn2)n1)C1CCCCC1` (centres undefined) as the compound, how does the AC40 read?
A: The AC40 was 5.02 µM.

Q: `Cc1cccc(-c2ccc(C3[C@@H]4CN(C(=O)Nc5ccc(C(F)(F)F)cc5)C[C@H]3N4)cc2)c1` (some centres undefined) was tested. Which AC40 did it give?
A: The AC40 was 1.7 µM.

Q: For `COc1ccc(S(=O)(=O)N2CCc3ccccc32)cc1C(=O)Nc1cccnc1`, which AC40 is on record?
A: The AC40 was 16.3 µM.

Q: How did the AC40 turn out when `CN(C)C(=O)COC(=O)c1cccnc1Nc1ccccc1F` was run?
A: The AC40 was 29.5 µM.

Q: `COc1ccc(-c2ccc3c(N)c(C(=O)c4ccc(OC)c(OC)c4)sc3n2)cc1` was tested. Which AC40 did it give?
A: Its AC40 is 6.27 µM.

Q: Which AC40 does the source give for `CCOC(=O)[C@]12Cc3c(cc(OC)c(OC)c3OC)[C@H]1N(C1CCCCC1)C(=O)c1cc(OC)ccc12` here?
A: The AC40 was 6 µM.

Q: `COc1cccc(-c2ccc(C3[C@@H]4CN(Cc5cccc(F)c5)C[C@H]3N4)cc2)c1` (some centres undefined) was tested. Which AC40 did it give?
A: Its AC40 is 7.22 µM.
